PMC7561186, “Rational design of balanced dual-targeting antibiotics with limited resistance” (PLoS Biology, 2020)
Values after ≈ are worked out from the molar mass of the structure shown. Like-named read-outs stand apart in the source and are kept apart here.

Test system: S. aureus clinical isolates
Assay: microbe, parasite or virus in culture
Format: cell-based
Conditions: Staphylococcus aureus, read-out: MIC

With C[C@H]1COc2c(N3CCN(C)CC3)c(F)cc3c(=O)c(C(=O)O)cn1c23 [Levofloxacin] the MIC (ATCC 29213 / MSSA, S. aureus ATCC 29213, MSSA / VSSA, test date 2018-10-25 (three repeat lines)) was 0.25 µg/mL (≈ 0.692 µM), the MIC (ATCC 29213 / MSSA, S. aureus ATCC 29213, MSSA / VSSA, test date 2018-11-07) was 0.25 µg/mL (≈ 0.692 µM) and the MIC (MRSA / NRS 3 / VISA, S. aureus IHMA 1308243, NRS3, MRSA / VISA) was 32 µg/mL (≈ 88.6 µM). For the same compound, the MIC (MRSA / NRS 4 / VISA, S. aureus IHMA 649380, NRS4, MRSA / VISA) was 16 µg/mL (≈ 44.3 µM), the MIC (MRSA / NRS 18 / VISA, S. aureus IHMA 649386, NRS18, MRSA / VISA) was 16 µg/mL (≈ 44.3 µM) and the MIC (MRSA / NRS 19 / VISA, S. aureus IHMA 649387, NRS19, MRSA / VISA) was 32 µg/mL (≈ 88.6 µM). It also gave an MIC (MRSA / NRS 21 / VISA, S. aureus IHMA 649388, NRS21, MRSA / VISA) of 8 µg/mL (≈ 22.1 µM), an MIC (MRSA / NRS 22 / USA600 / VISA, S. aureus IHMA 649389, NRS22, MRSA / VISA, USA600) of 16 µg/mL (≈ 44.3 µM) and an MIC (MRSA / NRS 23 / VISA, S. aureus IHMA 649390, NRS23, MRSA / VISA) of 16 µg/mL (≈ 44.3 µM). For the same compound, the MIC (MRSA / NRS 24 / VISA, S. aureus IHMA 649391, NRS24, MRSA / VISA) was 64 µg/mL (≈ 177 µM), the MIC (MRSA / NRS 26, S. aureus IHMA 649392, NRS26, MRSA / VSSA) was 8 µg/mL (≈ 22.1 µM) and the MIC (MRSA / NRS 27 / VISA, S. aureus IHMA 1308248, NRS27, MRSA / VISA) was 32 µg/mL (≈ 88.6 µM). The MIC (MRSA / NRS 29 / VISA, S. aureus IHMA 1308250, NRS29, MRSA / VISA) was 16 µg/mL (≈ 44.3 µM), the MIC (MRSA / NRS 37 / VISA, S. aureus IHMA 1308251, NRS37, MRSA / VISA) was 32 µg/mL (≈ 88.6 µM) and the MIC (MRSA / NRS 54, S. aureus IHMA 1308253, NRS54, MRSA / VSSA* (*Expected VAN intermediate, confirmed VAN susceptible twice), test date 2018-11-07) was 8 µg/mL (≈ 22.1 µM). It also gave an MIC (MRSA / NRS 56 / VISA, S. aureus IHMA 1308254, NRS56, MRSA / VISA) of 8 µg/mL (≈ 22.1 µM), an MIC (MRSA / USA100 / VRSA, S. aureus IHMA 672230, VRS1, MRSA / VRSA, USA100) of 32 µg/mL (≈ 88.6 µM) and an MIC (MRSA / USA100 / VRSA, S. aureus IHMA 672231, VRS2, MRSA / VRSA, USA100) of 32 µg/mL (≈ 88.6 µM). The MIC (MRSA / USA100 / VRSA, S. aureus IHMA 672234, VRS4, MRSA / VRSA, USA100) was > 64 µg/mL, the MIC (MRSA / USA100 / VRSA, S. aureus IHMA 672235, VRS5, MRSA / VRSA, USA100) was 64 µg/mL (≈ 177 µM) and the MIC (MRSA / USA100 / VRSA, S. aureus IHMA 672237, VRS7, MRSA / VRSA, USA100) was 64 µg/mL (≈ 177 µM). The MIC (MRSA / USA100 / VRSA, S. aureus IHMA 672238, VRS8, MRSA / VRSA, USA100) was 16 µg/mL (≈ 44.3 µM), the MIC (MRSA / USA100 / VRSA, S. aureus IHMA 672239, VRS9, MRSA / VRSA, USA100) was 64 µg/mL (≈ 177 µM) and the MIC (MRSA / USA100 / VRSA, S. aureus IHMA 1308256, VRS10, MRSA / VRSA, USA100) was > 64 µg/mL. For the same compound, the MIC (MRSA / USA100 / VRSA, S. aureus IHMA 1308258, VRS11b, MRSA / VRSA, USA100) was > 64 µg/mL, the MIC (MRSA / USA800 / VRSA, S. aureus IHMA 672233, VRS3b, MRSA / VRSA, USA800) was 16 µg/mL (≈ 44.3 µM) and the MIC (MRSA, S. aureus IHMA 1569509, MRSA / VSSA) was 4 µg/mL (≈ 11.1 µM). For the same compound, the MIC (MRSA, S. aureus IHMA 1575268, MRSA / VSSA) was 32 µg/mL (≈ 88.6 µM), the MIC (MRSA, S. aureus IHMA 1575629, MRSA / VSSA) was 8 µg/mL (≈ 22.1 µM) and the MIC (MRSA, S. aureus IHMA 1577820, MRSA / VSSA) was > 64 µg/mL. For the same compound, the MIC (MRSA, S. aureus IHMA 1580300, MRSA / VSSA) was 16 µg/mL (≈ 44.3 µM), the MIC (MRSA, S. aureus IHMA 1580940, MRSA / VSSA) was 0.5 µg/mL (≈ 1.38 µM) and the MIC (MRSA, S. aureus IHMA 1582100, MRSA / VSSA) was 32 µg/mL (≈ 88.6 µM). The MIC (MRSA, S. aureus IHMA 1583795, MRSA / VSSA) was 32 µg/mL (≈ 88.6 µM), the MIC (MRSA, S. aureus IHMA 1584223, MRSA / VSSA) was 8 µg/mL (≈ 22.1 µM) and the MIC (MRSA, S. aureus IHMA 1585316, MRSA / VSSA) was 32 µg/mL (≈ 88.6 µM). For the same compound, the MIC (MRSA, S. aureus IHMA 1586780, MRSA / VSSA) was 16 µg/mL (≈ 44.3 µM), the MIC (MRSA, S. aureus IHMA 1587322, MRSA / VSSA) was 0.25 µg/mL (≈ 0.692 µM) and the MIC (MRSA, S. aureus IHMA 1588127, MRSA / VSSA) was 16 µg/mL (≈ 44.3 µM). The MIC (MRSA, S. aureus IHMA 1591462, MRSA / VSSA) was 32 µg/mL (≈ 88.6 µM), the MIC (MRSA, S. aureus IHMA 1592755, MRSA / VSSA) was 16 µg/mL (≈ 44.3 µM) and the MIC (MRSA, S. aureus IHMA 1592776, MRSA / VSSA) was 0.25 µg/mL (≈ 0.692 µM). It also gave an MIC (MRSA, S. aureus IHMA 1597106, MRSA / VSSA) of 16 µg/mL (≈ 44.3 µM), an MIC (MRSA, S. aureus IHMA 1602095, MRSA / VSSA) of 0.25 µg/mL (≈ 0.692 µM) and an MIC (MRSA, S. aureus IHMA 1611170, MRSA / VSSA) of 0.25 µg/mL (≈ 0.692 µM). The MIC (MRSA, S. aureus IHMA 1611612, MRSA / VSSA) was 32 µg/mL (≈ 88.6 µM), the MIC (MRSA, S. aureus IHMA 1612228, MRSA / VSSA) was 8 µg/mL (≈ 22.1 µM) and the MIC (MRSA, S. aureus IHMA 1620441, MRSA / VSSA) was 32 µg/mL (≈ 88.6 µM).
